Test results as given in publication PMC4503722, “Novel Phenotypic Outcomes Identified for a Public Collection of Approved Drugs from a Publicly Accessible Panel of Assays” (PLoS ONE, 2015).
Counter-ions that a name gives are not always drawn. Like-named read-outs stand apart in the source and are kept apart here. *1 amine or outer side, *2 acyl side, *3 side chain or, on linkers, in order; H or OH if unused. Where a SMILES comes first, the peptide text is derived from it. Bridges are numbered along the chain shown (N, C = ends). Roman numbers before positions name the chains, in order. [ ]: non-standard residue; d: D form. Actinocin(9to1) = Cc1c2oc3c(C)ccc(C(=O)[*:1])c3nc-2c(C(=O)[*:2])c(N)c1=O; NMeV = CN[C@H](C(=O)O)C(C)C; Sar = CNCC(=O)O

Tests used:
Assay in all cases: cells
HCT116 = type: cell-based
SW480 = type: cell-based
[1] = tested on: HCT116 cells treated with a GSK3β inhibitor; type: cell-based
DLD-1 = type: cell-based
INS-1E cells = type: cell-based, rat
[2] = tested on: nuclear β-catenin in C2C12 cells; type: cell-based
NCI-H716 cells = type: cell-based, Human
[3] = tested on: endothelial tube formation in co-cultures of ECFCs and ADSCs treated with VEGF; type: cell-based, human
HeLa cells = type: cell-based; conditions: HeLa, read-out: CellCycle G2/M
[4] = Rattus norvegicus, INS-1E, read-out: Insulin Secretion
[5] = Mus musculus, C2C12, S2 Table, module primary assay, 20 / 20.1 codes per legend, read-out: Wnt Pathway
[6] = Homo sapiens, NCI-H716, read-out: GLP 1 Secretion
[7] = Homo sapiens, HCT-116, GSK3b inhibitor pretreated, read-out: GSK3b inh pretreated_Viability ATP HCT116
[8] = Homo sapiens, IC50 / EC50, endothelial tube area, ADSC/ECFC co-culture, read-out: Anti-Angiogenesis
[9] = Rattus norvegicus, IC50 / EC50, INS-1E, read-out: Insulin Secretion
[10] = Homo sapiens, IC50 / EC50, NCI-H716, read-out: GLP 1 Secretion
[11] = basal, read-out: Basal_Viability ATP HCT116
[12] = basal, read-out: Basal_Viability ATP SW480
[13] = GSK3b inhibitor pretreated, read-out: GSK3b inh pretreated_Viability ATP HCT116
[14] = basal, read-out: Basal_Viability ATP DLD-1
[15] = IC50 / EC50, INS-1E, read-out: Insulin Secretion
[16] = IC50 / EC50, C2C12 beta-catenin translocation, read-out: Wnt Pathway
[17] = IC50 / EC50, NCI-H716, read-out: GLP 1 Secretion
[18] = Homo sapiens, HCT-116, basal, read-out: Basal_Viability ATP HCT116
[19] = Homo sapiens, SW480, basal, read-out: Basal_Viability ATP SW480
[20] = Homo sapiens, DLD-1, basal, read-out: Basal_Viability ATP DLD-1
[21] = Mus musculus, C2C12, IC50 / EC50, C2C12 beta-catenin translocation, read-out: Wnt Pathway

For `CC(C)(C)CC(C)(C)c1ccc(O)c(Cc2ccc(Cl)cc2Cl)c1` [Clofoctol], which IC50 (HCT116; Homo sapiens, HCT-116, basal, HCT116, read-out: Basal_Viability ATP HCT116) is on record?
The IC50 was 5.31 µM.

And the IC50 (SW480; Homo sapiens, SW480, basal, SW480, read-out: Basal_Viability ATP SW480)?
Its IC50 is 3.97 µM.

What about the IC50 ([1]; Homo sapiens, HCT-116, HCT116 pretreated with GSK3b inhibitor, read-out: GSK3b inh pretreated_Viability ATP HCT116) of the same molecule?
The IC50 was 4.73 µM.

What about the IC50 (DLD-1; Homo sapiens, DLD-1, basal, DLD-1, read-out: Basal_Viability ATP DLD-1) of the same molecule?
The IC50 was 2.18 µM.

And the EC50 (INS-1E cells; [4])?
Its EC50 is over 20 µM.

What about the EC50 [2, 5] of the same molecule?
Its EC50 is over 10 µM.

And the EC50 (NCI-H716 cells; [6])?
Its EC50 is 0.544 µM.

How did the IC50 (HCT116; Homo sapiens, HCT-116, read-out: Basal_Viability ATP HCT116) turn out when `Cc1c2oc3c(C)ccc(C(=O)N[C@@H]4C(=O)N[C@H](C(C)C)C(=O)N5CCC[C@H]5C(=O)N(C)CC(=O)N(C)[C@@H](C(C)C)C(=O)O[C@@H]4C)c3nc-2c(C(=O)N[C@@H]2C(=O)N[C@H](C(C)C)C(=O)N3CCC[C@H]3C(=O)N(C)CC(=O)N(C)[C@@H](C(C)C)C(=O)O[C@@H]2C)c(N)c1=O` [Dactinomycin] (I: T[dV]P[Sar][NMeV] / II: T[dV]P[Sar][NMeV]; ester I:1-I:C, II:1-II:C; linker I:N-II:N via Actinocin(9to1)) was run?
The IC50 was 12.6 µM.

What about the IC50 (SW480; Homo sapiens, SW480, read-out: Basal_Viability ATP SW480) of the same molecule?
The IC50 was 0.0667 µM.

What about the IC50 [1, 7] of the same molecule?
Its IC50 is over 20 µM.

And the IC50 [3, 8]?
Its IC50 is 0.001 µM.

What about the IC50 (DLD-1; Homo sapiens, DLD-1, read-out: Basal_Viability ATP DLD-1) of the same molecule?
The IC50 was 0.0667 µM.

What about the EC50 (INS-1E cells; [9]) of the same molecule?
Its EC50 is over 10 µM.

What about the EC50 ([2]; Mus musculus, IC50 / EC50, C2C12 beta-catenin translocation, read-out: Wnt Pathway) of the same molecule?
Its EC50 is 0.0015 µM.

What about the EC50 (NCI-H716 cells; [10]) of the same molecule?
The EC50 was over 10 µM.

Which IC50 (HCT116; [11]) does the source give for `O=C(O)c1ccccc1-c1c2cc(I)c(=O)c(I)c-2oc2c(I)c(O)c(I)cc12` [Erythrosin b] here?
Its IC50 is over 20 µM.

And the IC50 (SW480; [12])?
Its IC50 is over 20 µM.

And the IC50 [1, 13]?
The IC50 was over 20 µM.

What about the IC50 ([3]; IC50 / EC50, endothelial tube area, ADSC/ECFC co-culture, read-out: Anti-Angiogenesis) of the same molecule?
The IC50 was over 10 µM.

What about the IC50 (DLD-1; [14]) of the same molecule?
The IC50 was over 20 µM.

And the EC50 (INS-1E cells; [15])?
Its EC50 is over 10 µM.

And the EC50 [2, 16]?
Its EC50 is over 10 µM.

And the EC50 (NCI-H716 cells; [17])?
Its EC50 is 2.93 µM.

Which results are given for `Cc1cc(CC(C)CC(C)(C)C)n(O)c(=O)c1` (stereo not drawn) [Piroctonum]?
IC50 (HCT116; [11]): 0.772 µM; IC50 (SW480; [12]): 0.581 µM; IC50 [1, 13]: 0.506 µM; IC50 (DLD-1; [14]): 1.08 µM; EC50 (INS-1E cells; [15]): > 10 µM; EC50 (HeLa cells; IC50 / EC50): > 10 µM; EC50 [2, 16]: 0.591 µM; EC50 (NCI-H716 cells; [17]): > 10 µM

Which IC50 (HCT116; read-out: Basal_Viability ATP HCT116) does the source give for `Oc1ccc2[nH]cc(CCCCN3CC=C(c4ccccc4)CC3)c2c1` [Roxindole hydrochloride] here?
Its IC50 is 2.5 µM.

What about the IC50 (SW480; read-out: Basal_Viability ATP SW480) of the same molecule?
Its IC50 is 2.47 µM.

What about the IC50 ([1]; read-out: GSK3b inh pretreated_Viability ATP HCT116) of the same molecule?
The IC50 was 3.32 µM.

What about the IC50 ([3]; read-out: Anti-Angiogenesis) of the same molecule?
The IC50 was 4.04 µM.

What about the IC50 (DLD-1; read-out: Basal_Viability ATP DLD-1) of the same molecule?
The IC50 was 4.54 µM.

And the EC50 (INS-1E cells; read-out: Insulin Secretion)?
The EC50 was over 10 µM.

What about the EC50 ([2]; read-out: Wnt Pathway) of the same molecule?
The EC50 was over 10 µM.

What about the EC50 (NCI-H716 cells; read-out: GLP 1 Secretion) of the same molecule?
The EC50 was over 10 µM.

What does the source list for `CNC(=O)c1cc(Oc2ccc(NC(=O)Nc3ccc(Cl)c(C(F)(F)F)c3)cc2)ccn1` [Sorafenib tosilate]?
IC50 ([1]; Homo sapiens, HCT-116, read-out: GSK3b inh pretreated_Viability ATP HCT116): 1.12 µM; EC50 (INS-1E cells; [4]): > 10 µM; EC50 (HeLa cells; Homo sapiens, S2 Table, 20 = no response at highest concentration): > 10 µM; EC50 [2, 5]: > 10 µM; EC50 (NCI-H716 cells; [6]): > 10 µM

For `O=C1Nc2ccc(Cl)cc2[C@@](C#CC2CC2)(C(F)(F)F)O1` [efavirenz, reference compound], which IC50 (HCT116; [18]) is on record?
Its IC50 is 6.17 µM.

And the IC50 (SW480; [19])?
Its IC50 is 4.61 µM.

What about the IC50 [1, 7] of the same molecule?
Its IC50 is 7.3 µM.

And the IC50 [3, 8]?
The IC50 was over 10 µM.

What about the IC50 (DLD-1; [20]) of the same molecule?
The IC50 was over 20 µM.

What about the EC50 (INS-1E cells; [9]) of the same molecule?
The EC50 was 3.87 µM.

And the EC50 [2, 21]?
Its EC50 is over 10 µM.

And the “activity in the GLP-1 secretion assay (in words)” value (NCI-H716 cells)?
The value was “exhibited activity in the GLP-1 secretion assay”.

And the EC50 (NCI-H716 cells; [10])?
Its EC50 is 2.48 µM.

Which IC50 (HCT116; Homo sapiens, HCT-116, 72 h, read-out: HCT-116 viab. IC50, Table 2, basal, 72 h, Cell TiterGlo, non-adherent, 20 coded) does the source give for `CCC1=C(C)CN(C(=O)NCCc2ccc(S(=O)(=O)NC(=O)N[C@H]3CC[C@H](C)CC3)cc2)C1=O` [glimepiride, reference compound] here?
The IC50 was over 20 µM.

What about the IC50 (SW480; Homo sapiens, SW480, 72 h, Table 2, 72 h, Cell TiterGlo, non-adherent, 20 coded, read-out: SW480 viab. IC50) of the same molecule?
The IC50 was over 20 µM.

What about the IC50 ([1]; Homo sapiens, HCT-116, read-out: HCT-116 (GSK3β) viab. IC50, Table 2, GSK3β inhibitor LY2090314 20 nM, 72 h, Cell TiterGlo, 20 coded) of the same molecule?
The IC50 was over 20 µM.

What about the IC50 ([3]; Homo sapiens, Table 2, primary assay tube area, 20 = no response in concentration-response, 20.1 = inactive in single concentration testing, read-out: Anti-Angio IC50) of the same molecule?
The IC50 was over 10 µM.

And the IC50 (DLD-1; Homo sapiens, DLD-1, 72 h, Table 2, 72 h, Cell TiterGlo, non-adherent, 20 coded, read-out: DLD-1 viab. IC50)?
Its IC50 is over 20 µM.

And the EC50 (INS-1E cells; Rattus norvegicus, INS-1E, read-out: Ins. sec. EC50)?
Its EC50 is 0.004 µM.

And the EC50 (INS-1E cells; [9])?
Its EC50 is 0.00406 µM.

And the EC50 (INS-1E cells; Rattus norvegicus, INS-1E, 5 mM glucose, read-out: insulin secretion EC50)?
Its EC50 is 0.0041 µM.

And the EC50 ([2]; Mus musculus, C2C12, Table 2, C2C12, […], 20 / 20.1 coded, read-out: Wnt pot. EC50)?
Its EC50 is over 10 µM.

What about the EC50 (NCI-H716 cells; Homo sapiens, NCI-H716, read-out: GLP1 sec. EC50) of the same molecule?
Its EC50 is over 10 µM.

Which results are given for `C/C(=C(/CCOC(=O)C(C)C)SS/C(CCOC(=O)C(C)C)=C(\C)N(C=O)Cc1cnc(C)nc1N)N(C=O)Cc1cnc(C)nc1N` [sulbutiamine]?
IC50 (HCT116; [18]): > 20 µM; IC50 (SW480; [19]): > 20 µM; IC50 [1, 7]: > 20 µM; IC50 (DLD-1; [20]): > 20 µM; EC50 (INS-1E cells; [9]): > 20 µM; EC50 [2, 21]: > 10 µM; EC50 (NCI-H716 cells; [10]): 2.39 µM

What does the source list for Janssen brand of muromonab-cd3?
IC50 (HCT116; [11]): 2.64 µM; IC50 (SW480; [12]): 3.22 µM; IC50 [1, 13]: 3.66 µM; IC50 (DLD-1; [14]): 2.81 µM; EC50 (INS-1E cells; [15]): > 10 µM; EC50 (HeLa cells; IC50 / EC50): > 10 µM; EC50 [2, 16]: > 10 µM; EC50 (NCI-H716 cells; [17]): 0.79 µM
